# According to patent US20140024527A1, “HERBICIDAL PYRAZINONES” (E I DU DE NEMOURS AND COMPANY, priority 2011, published 2014):
# Legend:
# Type in all cases: in vivo
# [1] = system: barnyardgrass (Echinochloa crus-galli); assay: Test B flooded paddy test; details: Flood
# Description: (§1) Plant species in the flooded paddy test consisted of rice (Oryza sativa), umbrella sedge (Cyperus difformis), ducksalad (Heteranthera limosa) and barnyardgrass (Echinochloa crus-galli) grown to the 2-leaf stage for testing. At time of treatment, test pots were flooded to 3 cm above the soil surface, treated by application of test compounds directly to the paddy water, and then maintained at that water depth for the duration of the test. Treated plants and controls were maintained in a greenhouse for 13 to 15 days, after which time all species were compared to controls and visually evaluated. Plant response ratings, summarized in Table B, are based on a scale of 0 to 100 where 0 is no effect and 100 is complete control. A dash (-) response means no test result.
# rice (Oryza sativa) = assay: Test B flooded paddy test; details: Flood, scale 0 to 100
# Description: as §1
# [2] = system: umbrella sedge (Cyperus difformis); assay: Test B flooded paddy test; details: Flood, scale 0 to 100
# Description: as §1
# [3] = system: ducksalad (Heteranthera limosa); assay: Test B flooded paddy test; details: Flood, scale 0 to 100
# Description: as §1
# corn (Zea mays) [4] = assay: Test A preemergence; details: 0 to 100 scale, 0 no effect, 100 complete control, approx. 10 days
# Description: (§2) Seeds of barnyardgrass (Echinochloa crus-galli), large crabgrass (Digitaria sanguinalis), giant foxtail (Setaria faberii), morningglory (Ipomoea spp.), pigweed (Amaranthus retroflexus), velvetleaf (Abutilon theophrasti), wheat (Triticum aestivum) and corn (Zea mays) were planted into a blend of loam soil and sand and treated preemergence with a directed soil spray using test chemicals formulated in a non-phytotoxic solvent mixture which included a surfactant. At the same time these species were also treated with postemergence applications of test compounds formulated in the same manner. Plants ranged in height from 2 to 10 cm and were in the one- to two-leaf stage for the postemergence treatments. Treated plants and untreated controls were maintained in a greenhouse for approximately 10 days, after which time all treated plants were compared to untreated controls and visually evaluated for injury. Plant response ratings, summarized in Table A, are based on a 0 to 100 scale where 0 is no effect and 100 is complete control.
# [5] = system: giant foxtail (Setaria faberii); assay: Test A preemergence; details: 0 to 100 scale, 0 no effect, 100 complete control, approx. 10 days
# Description: as §2
# [6] = system: velvetleaf (Abutilon theophrasti); assay: Test A preemergence; details: 0 to 100 scale, 0 no effect, 100 complete control, approx. 10 days
# Description: as §2
# [7] = system: barnyardgrass (Echinochloa crus-galli); assay: Test A preemergence; details: 0 to 100 scale, 0 no effect, 100 complete control, approx. 10 days
# Description: as §2
# [8] = system: pigweed (Amaranthus retroflexus); assay: Test A preemergence; details: 0 to 100 scale, 0 no effect, 100 complete control, approx. 10 days
# Description: as §2
# [9] = system: wheat (Triticum aestivum); assay: Test A preemergence; details: 0 to 100 scale, 0 no effect, 100 complete control, approx. 10 days
# Description: as §2
# [10] = system: morningglory (Ipomoea spp.); assay: Test A preemergence; details: 0 to 100 scale, 0 no effect, 100 complete control, approx. 10 days
# Description: as §2
# [11] = system: large crabgrass (Digitaria sanguinalis); assay: Test A preemergence; details: 0 to 100 scale, 0 no effect, 100 complete control, approx. 10 days
# Description: as §2
# corn (Zea mays) [12] = assay: Test A postemergence; details: 0 to 100 scale, 0 no effect, 100 complete control, approx. 10 days
# Description: as §2
# [13] = system: giant foxtail (Setaria faberii); assay: Test A postemergence; details: 0 to 100 scale, 0 no effect, 100 complete control, approx. 10 days
# Description: as §2
# [14] = system: velvetleaf (Abutilon theophrasti); assay: Test A postemergence; details: 0 to 100 scale, 0 no effect, 100 complete control, approx. 10 days
# Description: as §2
# [15] = system: barnyardgrass (Echinochloa crus-galli); assay: Test A postemergence; details: 0 to 100 scale, 0 no effect, 100 complete control, approx. 10 days
# Description: as §2
# [16] = system: pigweed (Amaranthus retroflexus); assay: Test A postemergence; details: 0 to 100 scale, 0 no effect, 100 complete control, approx. 10 days
# Description: as §2
# [17] = system: wheat (Triticum aestivum); assay: Test A postemergence; details: 0 to 100 scale, 0 no effect, 100 complete control, approx. 10 days
# Description: as §2
# [18] = system: morningglory (Ipomoea spp.); assay: Test A postemergence; details: 0 to 100 scale, 0 no effect, 100 complete control, approx. 10 days
# Description: as §2
# [19] = system: large crabgrass (Digitaria sanguinalis); assay: Test A postemergence; details: 0 to 100 scale, 0 no effect, 100 complete control, approx. 10 days
# Description: as §2
# [20] = 250 g ai/ha, scale 0 to 100 (0 no effect, 100 complete control)
smiles,measurement,setting,value
"COCCn1c(-c2cccc(F)c2)c(Cl)nc(C(=O)C2=C(O)CCCC2=O)c1=O [Compound 7, 5-chloro-6-(3-fluorophenyl)-3-[(2-hydroxy-6-oxo-1-cyclohexen-1-yl)carbonyl]-1-(2-methoxyethyl)-2(1H)pyrazinone]","Plant response rating, Barnyardgrass","[1]; 31 g ai/ha, scale 0 to 100",0
same,"Plant response rating, Barnyardgrass","[1]; 62 g ai/ha, scale 0 to 100",0
same,"Plant response rating, Barnyardgrass","[1]; 125 g ai/ha, scale 0 to 100",10
same,"Plant response rating, Barnyardgrass",[1]; [20],20
same,"Plant response rating, Rice",rice (Oryza sativa); 31 g ai/ha,0
same,"Plant response rating, Rice",rice (Oryza sativa); 62 g ai/ha,0
same,"Plant response rating, Rice",rice (Oryza sativa); 125 g ai/ha,0
same,"Plant response rating, Rice",rice (Oryza sativa); 250 g ai/ha,15
same,"Plant response rating, Sedge, Umbrella",[2]; 31 g ai/ha,0
same,"Plant response rating, Sedge, Umbrella",[2]; 62 g ai/ha,20
same,"Plant response rating, Sedge, Umbrella",[2]; 125 g ai/ha,50
same,"Plant response rating, Sedge, Umbrella",[2]; 250 g ai/ha,75
same,"Plant response rating, Ducksalad",[3]; 31 g ai/ha,0
same,"Plant response rating, Ducksalad",[3]; 62 g ai/ha,40
same,"Plant response rating, Ducksalad",[3]; 125 g ai/ha,50
same,"Plant response rating, Ducksalad",[3]; 250 g ai/ha,80
same,"Plant response rating, Corn",corn (Zea mays) [4]; 125 g ai/ha,0
same,"Plant response rating, Corn",corn (Zea mays) [4]; 500 g ai/ha,0
same,"Plant response rating, Foxtail, Giant",[5]; 125 g ai/ha,0
same,"Plant response rating, Foxtail, Giant",[5]; 500 g ai/ha,0
same,"Plant response rating, Velvetleaf",[6]; 125 g ai/ha,0
same,"Plant response rating, Velvetleaf",[6]; 500 g ai/ha,20
same,"Plant response rating, Barnyardgrass",[7]; 125 g ai/ha,0
same,"Plant response rating, Barnyardgrass",[7]; 500 g ai/ha,10
same,"Plant response rating, Pigweed",[8]; 125 g ai/ha,0
same,"Plant response rating, Pigweed",[8]; 500 g ai/ha,50
same,"Plant response rating, Wheat",[9]; 125 g ai/ha,0
same,"Plant response rating, Wheat",[9]; 500 g ai/ha,0
same,"Plant response rating, Morningglory",[10]; 125 g ai/ha,0
same,"Plant response rating, Morningglory",[10]; 500 g ai/ha,20
same,"Plant response rating, Crabgrass, Large",[11]; 125 g ai/ha,0
same,"Plant response rating, Crabgrass, Large",[11]; 500 g ai/ha,0
same,"Plant response rating, Corn",corn (Zea mays) [12]; 125 g ai/ha,0
same,"Plant response rating, Corn",corn (Zea mays) [12]; 500 g ai/ha,20
same,"Plant response rating, Foxtail, Giant",[13]; 125 g ai/ha,0
same,"Plant response rating, Foxtail, Giant",[13]; 500 g ai/ha,0
same,"Plant response rating, Velvetleaf",[14]; 125 g ai/ha,100
same,"Plant response rating, Velvetleaf",[14]; 500 g ai/ha,100
same,"Plant response rating, Barnyardgrass",[15]; 125 g ai/ha,20
same,"Plant response rating, Barnyardgrass",[15]; 500 g ai/ha,80
same,"Plant response rating, Pigweed",[16]; 125 g ai/ha,80
same,"Plant response rating, Pigweed",[16]; 500 g ai/ha,90
same,"Plant response rating, Wheat",[17]; 125 g ai/ha,0
same,"Plant response rating, Wheat",[17]; 500 g ai/ha,0
same,"Plant response rating, Morningglory",[18]; 125 g ai/ha,80
same,"Plant response rating, Morningglory",[18]; 500 g ai/ha,90
same,"Plant response rating, Crabgrass, Large",[19]; 125 g ai/ha,0
same,"Plant response rating, Crabgrass, Large",[19]; 500 g ai/ha,10
"CCCCn1c(-c2ccccc2)cnc(C(=O)C2=C(O)CCCC2=O)c1=O [Compound 1, 1-butyl-3-[(2-hydroxy-6-oxo-1-cyclohexen-1-yl)carbonyl]-6-phenyl-2(1H)-pyrazinone]","Plant response rating, Barnyardgrass","[1]; 62 g ai/ha, scale 0 to 100",60
same,"Plant response rating, Barnyardgrass",[1]; [20],80
same,"Plant response rating, Rice",rice (Oryza sativa); 62 g ai/ha,70
same,"Plant response rating, Rice",rice (Oryza sativa); 250 g ai/ha,85
same,"Plant response rating, Sedge, Umbrella",[2]; 62 g ai/ha,70
same,"Plant response rating, Sedge, Umbrella",[2]; 250 g ai/ha,95
same,"Plant response rating, Ducksalad",[3]; 62 g ai/ha,60
same,"Plant response rating, Ducksalad",[3]; 250 g ai/ha,95
same,"Plant response rating, Corn",corn (Zea mays) [4]; 125 g ai/ha,0
same,"Plant response rating, Corn",corn (Zea mays) [4]; 500 g ai/ha,0
same,"Plant response rating, Foxtail, Giant",[5]; 125 g ai/ha,0
same,"Plant response rating, Foxtail, Giant",[5]; 500 g ai/ha,30
same,"Plant response rating, Velvetleaf",[6]; 125 g ai/ha,50
same,"Plant response rating, Velvetleaf",[6]; 500 g ai/ha,100
same,"Plant response rating, Barnyardgrass",[7]; 125 g ai/ha,0
same,"Plant response rating, Barnyardgrass",[7]; 500 g ai/ha,80
same,"Plant response rating, Pigweed",[8]; 125 g ai/ha,60
same,"Plant response rating, Pigweed",[8]; 500 g ai/ha,100
same,"Plant response rating, Wheat",[9]; 125 g ai/ha,0
same,"Plant response rating, Wheat",[9]; 500 g ai/ha,0
same,"Plant response rating, Morningglory",[10]; 125 g ai/ha,0
same,"Plant response rating, Morningglory",[10]; 500 g ai/ha,70
same,"Plant response rating, Crabgrass, Large",[11]; 125 g ai/ha,10
same,"Plant response rating, Crabgrass, Large",[11]; 500 g ai/ha,40
same,"Plant response rating, Corn",corn (Zea mays) [12]; 125 g ai/ha,0
same,"Plant response rating, Corn",corn (Zea mays) [12]; 500 g ai/ha,10
same,"Plant response rating, Foxtail, Giant",[13]; 125 g ai/ha,10
same,"Plant response rating, Foxtail, Giant",[13]; 500 g ai/ha,40
same,"Plant response rating, Velvetleaf",[14]; 125 g ai/ha,100
same,"Plant response rating, Velvetleaf",[14]; 500 g ai/ha,100
same,"Plant response rating, Barnyardgrass",[15]; 125 g ai/ha,10
same,"Plant response rating, Barnyardgrass",[15]; 500 g ai/ha,80
same,"Plant response rating, Pigweed",[16]; 125 g ai/ha,60
same,"Plant response rating, Pigweed",[16]; 500 g ai/ha,100
same,"Plant response rating, Wheat",[17]; 125 g ai/ha,0
same,"Plant response rating, Wheat",[17]; 500 g ai/ha,0
same,"Plant response rating, Morningglory",[18]; 125 g ai/ha,40
same,"Plant response rating, Morningglory",[18]; 500 g ai/ha,100
same,"Plant response rating, Crabgrass, Large",[19]; 125 g ai/ha,10
same,"Plant response rating, Crabgrass, Large",[19]; 500 g ai/ha,50
